Results: US5679640A, “Immunosuppressant peptides” (priority 1995, dated 1997)
Read-outs that look alike come from different tables or passages of the source. Non-standard residues stand in square brackets, D forms with d. Residues, ends and D or L forms follow the SMILES beside them. Hyp = O=C(O)[C@@H]1C[C@@H](O)CN1; Cha = N[C@@H](CC1CCCCC1)C(=O)O

Assays:
HLA-DR1 = target: T1, HLA-DR1 (Homo sapiens, UniProt P01903+P01911, A100R/D57E/F55L/F60I/F76Y/I96L/L162R/M171V/P40L/Q125E/R42F/V115G/Y59C); assay: DR-peptide binding assay, DR1
T1 construct: EBV-transformed homozygous cell lines were used as a source of DR molecules; endogenous in cells; host or cells: LG-2 (EBV-transformed human B cell line, DR1 homozygous); lysate purified on a monoclonal antibody LB3.1 column

in vitro = conditions: human, serum
DR4w14 = assay: DR-peptide binding assay, DR4w14; design: species or system human; conditions: Table 3, […]
DR4w4 = target: T2, DR4w4 (Homo sapiens, UniProt P01903+P01911, A100K/A169T/F76Y/I96L/K127E/L162R/M171V/N62H/P40V/Q125Y/R42H/S133A/S149N/S66Y/V115G/V209L/W38E); assay: DR-peptide binding assay, DR4w4
T2 construct: EBV-transformed homozygous cell lines were used as a source of DR molecules; endogenous in cells; host or cells: Preiss or Beh (EBV-transformed human B cell lines, DR4 Dw4 homozygous); lysate purified on a monoclonal antibody LB3.1 column

[1] = Table 3, binding affinity relative to HA 307-319 = 1

| Structure (SMILES) | MHC Binding Assay DR1 (HLA-DR1; [1]) | half-life (in vitro) [h] | MHC Binding Assay DR4w14 (DR4w14) | MHC Binding Assay DR4w4 (DR4w4; [1]) | MHC Binding Assay DR1 (HLA-DR1) | MHC Binding Assay DR4w4 (DR4w4) |
| --- | --- | --- | --- | --- | --- | --- |
| C[C@H](NC(=O)[C@H](N)Cc1ccc(O)cc1)C(=O)N[C@@H](C)C(=O)N[C@@H](Cc1ccccc1)C(=O)N[C@@H](C)C(=O)N[C@@H](C)C(=O)N[C@@H](C)C(=O)N[C@@H](CCCCN)C(=O)N[C@H](C(=O)N[C@@H](C)C(=O)N[C@@H](C)C(=O)N[C@@H](C)C(=O)N[C@@H](C)C(=O)N[C@H](C)C(=O)O)[C@@H](C)O (H-[dY]AAFAAAKTAAAA[dA]-OH) | ++ (affinity greater than 1.0) | 8.85 | ++ (affinity greater than 1.0) | ++ (affinity greater than 1.0) | – | – |
| CC(=O)N[C@H](Cc1ccc(O)cc1)C(=O)N[C@@H](C)C(=O)N[C@@H](C)C(=O)N[C@@H](Cc1ccccc1)C(=O)N[C@@H](C)C(=O)N[C@@H](C)C(=O)N[C@@H](C)C(=O)N[C@@H](CCCCN)C(=O)N[C@H](C(=O)N[C@@H](C)C(=O)N[C@@H](C)C(=O)N[C@@H](C)C(=O)N[C@@H](C)C(=O)N[C@H](C)C(=O)O)[C@@H](C)O (Ac-[dY]AAFAAAKTAAAA[dA]-OH) | ± (0.1 to 0.50) | 6.77 | ++ (affinity greater than 1.0) | ++ (affinity greater than 1.0) | – | – |
| C[C@H](NC(=O)[C@H](N)Cc1ccc(O)cc1)C(=O)N[C@@H](C)C(=O)N[C@@H](Cc1ccccc1)C(=O)N[C@@H](C)C(=O)N[C@@H](C)C(=O)N[C@@H](C)C(=O)N[C@@H](CCCCN)C(=O)N[C@H](C(=O)N[C@@H](C)C(=O)N[C@@H](C)C(=O)N[C@@H](C)C(=O)N[C@@H](Cc1ccccc1)C(=O)N[C@H](C)C(N)=O)[C@@H](C)O (H-[dY]AAFAAAKTAAAF[dA]-NH2) | ++ (affinity greater than 1.0) | 5 | ++ (affinity greater than 1.0) | ++ (affinity greater than 1.0) | – | – |
| C[C@H](NC(=O)[C@H](C)NC(=O)[C@H](C)NC(=O)[C@H](Cc1ccccc1)NC(=O)[C@H](C)NC(=O)[C@@H](C)N)C(=O)N[C@@H](C)C(=O)N[C@H](C(=O)N[C@@H](C)C(=O)N[C@@H](CCCCN)C(=O)N[C@@H](C)C(=O)N[C@@H](C)C(=O)N[C@H](C)C(N)=O)[C@@H](C)O (H-[dA]AFAAAATAKAA[dA]-NH2) | ++ (affinity greater than 1.0) | – | ++ (affinity greater than 1.0) | ++ (affinity greater than 1.0) | – | – |
| CC(C)C[C@H](NC(=O)[C@@H](NC(=O)[C@H](C)NC(=O)[C@H](C)NC(=O)[C@H](C)NC(=O)[C@H](C)NC(=O)[C@H](Cc1ccccc1)NC(=O)[C@H](C)NC(=O)[C@@H](C)N)[C@@H](C)O)C(=O)N[C@@H](CCCCN)C(=O)N[C@@H](C)C(=O)N[C@@H](C)C(=O)N[C@H](C)C(N)=O (H-[dA]AFAAAATLKAA[dA]-NH2) | ++ (affinity greater than 1.0) | – | ++ (affinity greater than 1.0) | ++ (affinity greater than 1.0) | – | – |
| CC(C)C[C@H](NC(=O)[C@@H](NC(=O)[C@H](C)NC(=O)[C@H](C)NC(=O)[C@H](C)NC(=O)[C@H](C)NC(=O)[C@H](CC1CCCCC1)NC(=O)[C@H](C)NC(=O)[C@@H](C)N)[C@@H](C)O)C(=O)N[C@@H](CCCCN)C(=O)N[C@@H](C)C(=O)N[C@@H](C)C(=O)N[C@H](C)C(N)=O [aAXAAAATLKAAa-NH2] | ++ (affinity greater than 1.0) | – | ++ (affinity greater than 1.0) | ++ (affinity greater than 1.0) | – | – |
| CC(=O)N[C@H](Cc1ccc(O)cc1)C(=O)N[C@@H](C)C(=O)N[C@@H](C)C(=O)N[C@@H](Cc1ccccc1)C(=O)N[C@@H](C)C(=O)N[C@@H](C)C(=O)N[C@@H](C)C(=O)N[C@@H](CCCCN)C(=O)N[C@H](C(=O)N[C@@H](C)C(=O)N[C@@H](C)C(=O)N[C@@H](C)C(=O)N[C@@H](Cc1ccccc1)C(=O)N[C@H](C)C(N)=O)[C@@H](C)O (Ac-[dY]AAFAAAKTAAAF[dA]-NH2) | – | – | ++ (affinity greater than 1.0) | – | + (key: ++: affinity greater than 1.0; +: 0.51 to 1.0; ±: 0.1 to 0.50; -: less than 0.1) | ++ (key: ++: affinity greater than 1.0; +: .51 to 1.0; ±: 0.1 to .50; -: less than 0.1) |
| CC(C)C[C@H](NC(=O)[C@@H](NC(=O)[C@H](C)NC(=O)[C@H](C)NC(=O)[C@H](C)NC(=O)[C@H](C)NC(=O)[C@H](Cc1ccccc1)NC(=O)[C@H](C)NC(=O)[C@@H](C)N)[C@@H](C)O)C(=O)N[C@@H](CCCCN)C(=O)N[C@@H](C)C(=O)N[C@@H](C)C(=O)N[C@H](C)C(=O)O (H-[dA]AFAAAATLKAA[dA]-OH) | ++ (affinity greater than 1.0) | – | ++ (affinity greater than 1.0) | ++ (affinity greater than 1.0) | – | – |
| C[C@H](NC(=O)[C@H](N)Cc1ccc(O)cc1)C(=O)N[C@@H](C)C(=O)N[C@@H](CC1CCCCC1)C(=O)N[C@@H](C)C(=O)N[C@@H](C)C(=O)N[C@@H](C)C(=O)N[C@@H](CCCCN)C(=O)N[C@H](C(=O)N[C@@H](C)C(=O)N[C@@H](C)C(=O)N[C@@H](C)C(=O)N[C@@H](C)C(=O)N[C@H](C)C(N)=O)[C@@H](C)O [yAAXAAAKTAAAAa-NH2] | ++ (affinity greater than 1.0) | – | ++ (affinity greater than 1.0) | ++ (affinity greater than 1.0) | – | – |
| C[C@H](NC(=O)[C@H](C)NC(=O)[C@H](C)NC(=O)[C@@H](NC(=O)[C@H](CCCCN)NC(=O)[C@H](C)NC(=O)[C@H](C)NC(=O)[C@H](C)NC(=O)[C@H](CC1CCCCC1)NC(=O)[C@@H](C)N)[C@@H](C)O)C(=O)N[C@@H](C)C(=O)N[C@H](C)C(N)=O [aXAAAKTAAAAa-NH2] (H-[dA][Cha]AAAKTAAAA[dA]-NH2) | ++ (affinity greater than 1.0) | – | ++ (affinity greater than 1.0) | ++ (affinity greater than 1.0) | – | – |
| CC(C)C[C@H](NC(=O)[C@@H](NC(=O)[C@H](C)NC(=O)[C@H](C)NC(=O)[C@H](CCCCN)NC(=O)[C@H](C)NC(=O)[C@H](Cc1ccccc1)NC(=O)[C@H](C)NC(=O)[C@@H](C)N)[C@@H](C)O)C(=O)N[C@@H](CCCCN)C(=O)N[C@@H](C)C(=O)N[C@@H](C)C(=O)N[C@H](C)C(N)=O (H-[dA]AFAKAATLKAA[dA]-NH2) | ++ (affinity greater than 1.0) | – | ++ (affinity greater than 1.0) | ++ (affinity greater than 1.0) | – | – |
| CC(=O)N[C@H](C)C(=O)N[C@@H](C)C(=O)N[C@@H](CC1CCCCC1)C(=O)N[C@@H](C)C(=O)N[C@@H](C)C(=O)N[C@@H](C)C(=O)N[C@@H](C)C(=O)N[C@H](C(=O)N[C@@H](CC(C)C)C(=O)N[C@@H](CCCCN)C(=O)N[C@@H](C)C(=O)N[C@@H](C)C(=O)N[C@H](C)C(N)=O)[C@@H](C)O [Ac-aAXAAAATLKAAa-NH2] | ++ (affinity greater than 1.0) | – | ++ (affinity greater than 1.0) | ++ (affinity greater than 1.0) | – | – |
| C[C@H](NC(=O)[C@H](C)NC(=O)[C@H](CC1CCCCC1)NC(=O)[C@H](C)NC(=O)[C@@H](C)N)C(=O)N[C@@H](C)C(=O)N[C@@H](C)C(=O)N1C[C@H](O)C[C@H]1C(=O)N[C@@H](CCCCN)C(=O)N[C@@H](C)C(=O)N[C@@H](C)C(=O)N[C@@H](C)C(=O)N[C@H](C)C(N)=O [aAXAAAABKAAAa-NH2] (H-[dA]A[Cha]AAAA[Hyp]KAAA[dA]-NH2) | ++ (affinity greater than 1.0) | – | ++ (affinity greater than 1.0) | ++ (affinity greater than 1.0) | – | – |
| C[C@H](NC(=O)[C@H](N)Cc1ccc(O)cc1)C(=O)N[C@@H](C)C(=O)N[C@@H](CC1CCCCC1)C(=O)N[C@@H](C)C(=O)N[C@@H](C)C(=O)N[C@@H](C)C(=O)N[C@@H](C)C(=O)N[C@H](C(=O)N[C@@H](CCCCN)C(=O)N[C@@H](C)C(=O)N[C@@H](C)C(=O)N[C@@H](C)C(=O)N[C@H](C)C(N)=O)[C@@H](C)O [yAAXAAAATKAAAa-NH2] (H-[dY]AA[Cha]AAAATKAAA[dA]-NH2) | ++ (affinity greater than 1.0) | – | ++ (affinity greater than 1.0) | ++ (affinity greater than 1.0) | – | – |
| CC(=O)N[C@H](C)C(=O)N[C@@H](C)C(=O)N[C@@H](Cc1ccccc1)C(=O)N[C@@H](C)C(=O)N[C@@H](C)C(=O)N[C@@H](C)C(=O)N[C@@H](CCCCN)C(=O)N[C@H](C(=O)N[C@@H](C)C(=O)N[C@@H](C)C(=O)N[C@@H](C)C(=O)N[C@@H](Cc1ccccc1)C(=O)N[C@H](C)C(N)=O)[C@@H](C)O (Ac-[dA]AFAAAKTAAAF[dA]-NH2) | ++ (affinity greater than 1.0) | – | ++ (affinity greater than 1.0) | ++ (affinity greater than 1.0) | – | – |
